# Results reported in patent US10253039B2, “Inhibitors of bacterial DNA gyrase with efficacy against gram-negative bacteria” (priority 2014, dated 2019).
# Tested on: E. coli BW25113
# Assay: MIC, microdilution in 96-well plates
# Format: cell-based
# Settings: Escherichia coli, BW25113, E. coli BW25113; read-out: MIC
# Procedure, shortened: (§1)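 MIC read by eye as the lowest concentration without turbidity, after 16-18 h shaking incubation at 37° C. Cells: 1:10000 inoculum from growing subculture in LB. Compound in 2-fold serial dilutions, triplicate wells, DMSO vehicle control; CLSI protocol.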
row,SMILES,MIC [µg/mL]
1,O=S(=O)(N[C@@H]1CCN(Cc2cn(-c3ccccc3)nn2)C1)c1cccc(OC(F)(F)F)c1 [Compound 129],> 8
2,CC(C)Oc1ccc(CN2CC[C@@H](NS(=O)(=O)c3cc(S(C)(=O)=O)ccc3Cl)C2)cc1 [Compound 148],> 8
3,CC(C)Oc1ccc(CN2CC[C@@H](NS(=O)(=O)c3cncc(F)c3)C2)cc1 [Compound 150],> 8
4,CS(=O)(=O)c1ccc(Cl)c(S(=O)(=O)N[C@@H]2CCN(Cc3ccc(-c4ccccc4)cc3)C2)c1 [Compound 142],> 8
5,O=S(=O)(N[C@@H]1CCN(Cc2nc(-c3ccccc3)cs2)C1)c1cccc(C(F)(F)F)c1 [Compound 173],> 8
6,CS(=O)(=O)c1ccc(Cl)c(S(=O)(=O)N[C@@H]2CCN(Cc3ccc(OC4CC4)cc3)C2)c1 [Compound 151],> 8

# Tested on: Edwardsiella tarda
# Assay: MIC, microdilution in 96-well plates
# Format: cell-based
# Settings: not given
# Procedure, shortened: as §1
row,SMILES,MIC [µg/mL]
1,O=S(=O)(N[C@@H]1CCN(Cc2cn(-c3ccccc3)nn2)C1)c1cccc(OC(F)(F)F)c1 [Compound 129],> 8
2,CC(C)Oc1ccc(CN2CC[C@@H](NS(=O)(=O)c3cc(S(C)(=O)=O)ccc3Cl)C2)cc1 [Compound 148],> 8
3,CC(C)Oc1ccc(CN2CC[C@@H](NS(=O)(=O)c3cncc(F)c3)C2)cc1 [Compound 150],> 8
4,CS(=O)(=O)c1ccc(Cl)c(S(=O)(=O)N[C@@H]2CCN(Cc3ccc(-c4ccccc4)cc3)C2)c1 [Compound 142],> 8
5,O=S(=O)(N[C@@H]1CCN(Cc2nc(-c3ccccc3)cs2)C1)c1cccc(C(F)(F)F)c1 [Compound 173],> 8
6,CS(=O)(=O)c1ccc(Cl)c(S(=O)(=O)N[C@@H]2CCN(Cc3ccc(OC4CC4)cc3)C2)c1 [Compound 151],> 8

# Tested on: E. coli JW5503 (deltolC)
# Assay: MIC, 20-strain panel
# Format: cell-based
# Settings: Escherichia coli, E. coli JW5503 (deltolC)
# Procedure, shortened: as §1
row,SMILES,MIC [µg/mL]
1,O=S(=O)(N[C@@H]1CCN(Cc2cn(-c3ccccc3)nn2)C1)c1cccc(OC(F)(F)F)c1 [Compound 129],> 8
2,CC(C)Oc1ccc(CN2CC[C@@H](NS(=O)(=O)c3cc(S(C)(=O)=O)ccc3Cl)C2)cc1 [Compound 148],8
3,CC(C)Oc1ccc(CN2CC[C@@H](NS(=O)(=O)c3cncc(F)c3)C2)cc1 [Compound 150],> 8
4,CS(=O)(=O)c1ccc(Cl)c(S(=O)(=O)N[C@@H]2CCN(Cc3ccc(-c4ccccc4)cc3)C2)c1 [Compound 142],2
5,O=S(=O)(N[C@@H]1CCN(Cc2nc(-c3ccccc3)cs2)C1)c1cccc(C(F)(F)F)c1 [Compound 173],> 8
6,CS(=O)(=O)c1ccc(Cl)c(S(=O)(=O)N[C@@H]2CCN(Cc3ccc(OC4CC4)cc3)C2)c1 [Compound 151],~8

# Tested on: E. coli MG1655
# Assay: MIC, 20-strain panel
# Format: cell-based
# Settings: Escherichia coli, MG1655, E. coli MG1655; read-out: MIC
# Procedure, shortened: as §1
row,SMILES,MIC [µg/mL]
1,O=S(=O)(N[C@@H]1CCN(Cc2cn(-c3ccccc3)nn2)C1)c1cccc(OC(F)(F)F)c1 [Compound 129],> 8
2,CC(C)Oc1ccc(CN2CC[C@@H](NS(=O)(=O)c3cc(S(C)(=O)=O)ccc3Cl)C2)cc1 [Compound 148],> 8
3,CC(C)Oc1ccc(CN2CC[C@@H](NS(=O)(=O)c3cncc(F)c3)C2)cc1 [Compound 150],> 8
4,CS(=O)(=O)c1ccc(Cl)c(S(=O)(=O)N[C@@H]2CCN(Cc3ccc(-c4ccccc4)cc3)C2)c1 [Compound 142],> 8
5,O=S(=O)(N[C@@H]1CCN(Cc2nc(-c3ccccc3)cs2)C1)c1cccc(C(F)(F)F)c1 [Compound 173],> 8
6,CS(=O)(=O)c1ccc(Cl)c(S(=O)(=O)N[C@@H]2CCN(Cc3ccc(OC4CC4)cc3)C2)c1 [Compound 151],> 8

# Tested on: Klebsiella pneumoniae subsp. pneumoniae
# Assay: MIC, 20-strain panel
# Format: cell-based
# Settings: Klebsiella pneumoniae subsp. pneumoniae
# Procedure, shortened: as §1
row,SMILES,MIC [µg/mL]
1,O=S(=O)(N[C@@H]1CCN(Cc2cn(-c3ccccc3)nn2)C1)c1cccc(OC(F)(F)F)c1 [Compound 129],> 8
2,CC(C)Oc1ccc(CN2CC[C@@H](NS(=O)(=O)c3cc(S(C)(=O)=O)ccc3Cl)C2)cc1 [Compound 148],> 8
3,CC(C)Oc1ccc(CN2CC[C@@H](NS(=O)(=O)c3cncc(F)c3)C2)cc1 [Compound 150],> 8
4,CS(=O)(=O)c1ccc(Cl)c(S(=O)(=O)N[C@@H]2CCN(Cc3ccc(-c4ccccc4)cc3)C2)c1 [Compound 142],> 8
5,O=S(=O)(N[C@@H]1CCN(Cc2nc(-c3ccccc3)cs2)C1)c1cccc(C(F)(F)F)c1 [Compound 173],> 8
6,CS(=O)(=O)c1ccc(Cl)c(S(=O)(=O)N[C@@H]2CCN(Cc3ccc(OC4CC4)cc3)C2)c1 [Compound 151],> 8

# Tested on: Salmonella enterica subsp. enterica typhimurium
# Assay: MIC, 20-strain panel
# Format: cell-based
# Settings: Salmonella enterica subsp. enterica Typhimurium
# Procedure, shortened: as §1
row,SMILES,MIC [µg/mL]
1,O=S(=O)(N[C@@H]1CCN(Cc2cn(-c3ccccc3)nn2)C1)c1cccc(OC(F)(F)F)c1 [Compound 129],> 8
2,CC(C)Oc1ccc(CN2CC[C@@H](NS(=O)(=O)c3cc(S(C)(=O)=O)ccc3Cl)C2)cc1 [Compound 148],> 8
3,CC(C)Oc1ccc(CN2CC[C@@H](NS(=O)(=O)c3cncc(F)c3)C2)cc1 [Compound 150],> 8
4,CS(=O)(=O)c1ccc(Cl)c(S(=O)(=O)N[C@@H]2CCN(Cc3ccc(-c4ccccc4)cc3)C2)c1 [Compound 142],> 8
5,O=S(=O)(N[C@@H]1CCN(Cc2nc(-c3ccccc3)cs2)C1)c1cccc(C(F)(F)F)c1 [Compound 173],> 8
6,CS(=O)(=O)c1ccc(Cl)c(S(=O)(=O)N[C@@H]2CCN(Cc3ccc(OC4CC4)cc3)C2)c1 [Compound 151],> 8

# Tested on: Shigella flexneri
# Assay: MIC, 20-strain panel
# Format: cell-based
# Settings: not given
# Procedure, shortened: as §1
row,SMILES,MIC [µg/mL]
1,O=S(=O)(N[C@@H]1CCN(Cc2cn(-c3ccccc3)nn2)C1)c1cccc(OC(F)(F)F)c1 [Compound 129],> 8
2,CC(C)Oc1ccc(CN2CC[C@@H](NS(=O)(=O)c3cc(S(C)(=O)=O)ccc3Cl)C2)cc1 [Compound 148],> 8
3,CC(C)Oc1ccc(CN2CC[C@@H](NS(=O)(=O)c3cncc(F)c3)C2)cc1 [Compound 150],> 8
4,CS(=O)(=O)c1ccc(Cl)c(S(=O)(=O)N[C@@H]2CCN(Cc3ccc(-c4ccccc4)cc3)C2)c1 [Compound 142],> 8
5,O=S(=O)(N[C@@H]1CCN(Cc2nc(-c3ccccc3)cs2)C1)c1cccc(C(F)(F)F)c1 [Compound 173],> 8
6,CS(=O)(=O)c1ccc(Cl)c(S(=O)(=O)N[C@@H]2CCN(Cc3ccc(OC4CC4)cc3)C2)c1 [Compound 151],> 8

# Tested on: Staphylococcus aureus subsp. aureus
# Assay: MIC, 20-strain panel
# Format: cell-based
# Settings: Staphylococcus aureus subsp. aureus, read-out: MIC
# Procedure, shortened: as §1
row,SMILES,MIC [µg/mL]
1,O=S(=O)(N[C@@H]1CCN(Cc2cn(-c3ccccc3)nn2)C1)c1cccc(OC(F)(F)F)c1 [Compound 129],> 8
2,CC(C)Oc1ccc(CN2CC[C@@H](NS(=O)(=O)c3cc(S(C)(=O)=O)ccc3Cl)C2)cc1 [Compound 148],> 8
3,CC(C)Oc1ccc(CN2CC[C@@H](NS(=O)(=O)c3cncc(F)c3)C2)cc1 [Compound 150],> 8
4,CS(=O)(=O)c1ccc(Cl)c(S(=O)(=O)N[C@@H]2CCN(Cc3ccc(-c4ccccc4)cc3)C2)c1 [Compound 142],> 8
5,O=S(=O)(N[C@@H]1CCN(Cc2nc(-c3ccccc3)cs2)C1)c1cccc(C(F)(F)F)c1 [Compound 173],> 8
6,CS(=O)(=O)c1ccc(Cl)c(S(=O)(=O)N[C@@H]2CCN(Cc3ccc(OC4CC4)cc3)C2)c1 [Compound 151],> 8

# Tested on: Staphylococcus epidermidis
# Assay: MIC, 20-strain panel
# Format: cell-based
# Settings: not given
# Procedure, shortened: as §1
row,SMILES,MIC [µg/mL]
1,O=S(=O)(N[C@@H]1CCN(Cc2cn(-c3ccccc3)nn2)C1)c1cccc(OC(F)(F)F)c1 [Compound 129],> 8
2,CC(C)Oc1ccc(CN2CC[C@@H](NS(=O)(=O)c3cc(S(C)(=O)=O)ccc3Cl)C2)cc1 [Compound 148],> 8
3,CC(C)Oc1ccc(CN2CC[C@@H](NS(=O)(=O)c3cncc(F)c3)C2)cc1 [Compound 150],> 8
4,CS(=O)(=O)c1ccc(Cl)c(S(=O)(=O)N[C@@H]2CCN(Cc3ccc(-c4ccccc4)cc3)C2)c1 [Compound 142],> 8
5,O=S(=O)(N[C@@H]1CCN(Cc2nc(-c3ccccc3)cs2)C1)c1cccc(C(F)(F)F)c1 [Compound 173],> 8
6,CS(=O)(=O)c1ccc(Cl)c(S(=O)(=O)N[C@@H]2CCN(Cc3ccc(OC4CC4)cc3)C2)c1 [Compound 151],> 8

# Tested on: Staphylococcus saprophyticus subsp. saprophyticus
# Assay: MIC, 20-strain panel
# Format: cell-based
# Settings: not given
# Procedure, shortened: as §1
row,SMILES,MIC [µg/mL]
1,O=S(=O)(N[C@@H]1CCN(Cc2cn(-c3ccccc3)nn2)C1)c1cccc(OC(F)(F)F)c1 [Compound 129],> 8
2,CC(C)Oc1ccc(CN2CC[C@@H](NS(=O)(=O)c3cc(S(C)(=O)=O)ccc3Cl)C2)cc1 [Compound 148],> 8
3,CC(C)Oc1ccc(CN2CC[C@@H](NS(=O)(=O)c3cncc(F)c3)C2)cc1 [Compound 150],> 8
4,CS(=O)(=O)c1ccc(Cl)c(S(=O)(=O)N[C@@H]2CCN(Cc3ccc(-c4ccccc4)cc3)C2)c1 [Compound 142],> 8
5,O=S(=O)(N[C@@H]1CCN(Cc2nc(-c3ccccc3)cs2)C1)c1cccc(C(F)(F)F)c1 [Compound 173],> 8
6,CS(=O)(=O)c1ccc(Cl)c(S(=O)(=O)N[C@@H]2CCN(Cc3ccc(OC4CC4)cc3)C2)c1 [Compound 151],> 8

# Tested on: Streptococcus agalactiae
# Assay: MIC, 20-strain panel
# Format: cell-based
# Settings: not given
# Procedure, shortened: as §1
row,SMILES,MIC [µg/mL]
1,O=S(=O)(N[C@@H]1CCN(Cc2cn(-c3ccccc3)nn2)C1)c1cccc(OC(F)(F)F)c1 [Compound 129],> 8
2,CC(C)Oc1ccc(CN2CC[C@@H](NS(=O)(=O)c3cc(S(C)(=O)=O)ccc3Cl)C2)cc1 [Compound 148],> 8
3,CC(C)Oc1ccc(CN2CC[C@@H](NS(=O)(=O)c3cncc(F)c3)C2)cc1 [Compound 150],> 8
4,CS(=O)(=O)c1ccc(Cl)c(S(=O)(=O)N[C@@H]2CCN(Cc3ccc(-c4ccccc4)cc3)C2)c1 [Compound 142],> 8
5,O=S(=O)(N[C@@H]1CCN(Cc2nc(-c3ccccc3)cs2)C1)c1cccc(C(F)(F)F)c1 [Compound 173],> 8
6,CS(=O)(=O)c1ccc(Cl)c(S(=O)(=O)N[C@@H]2CCN(Cc3ccc(OC4CC4)cc3)C2)c1 [Compound 151],> 8

# Tested on: Streptococcus pyogenes
# Assay: MIC, 20-strain panel
# Format: cell-based
# Settings: not given
# Procedure, shortened: as §1
row,SMILES,MIC [µg/mL]
1,O=S(=O)(N[C@@H]1CCN(Cc2cn(-c3ccccc3)nn2)C1)c1cccc(OC(F)(F)F)c1 [Compound 129],> 8
2,CC(C)Oc1ccc(CN2CC[C@@H](NS(=O)(=O)c3cc(S(C)(=O)=O)ccc3Cl)C2)cc1 [Compound 148],> 8
3,CC(C)Oc1ccc(CN2CC[C@@H](NS(=O)(=O)c3cncc(F)c3)C2)cc1 [Compound 150],> 8
4,CS(=O)(=O)c1ccc(Cl)c(S(=O)(=O)N[C@@H]2CCN(Cc3ccc(-c4ccccc4)cc3)C2)c1 [Compound 142],> 8
5,O=S(=O)(N[C@@H]1CCN(Cc2nc(-c3ccccc3)cs2)C1)c1cccc(C(F)(F)F)c1 [Compound 173],> 8
6,CS(=O)(=O)c1ccc(Cl)c(S(=O)(=O)N[C@@H]2CCN(Cc3ccc(OC4CC4)cc3)C2)c1 [Compound 151],> 8
